Experimental data: the NIST ThermoML archive (doi:10.1021/acs.jced.8b01027)
Numbers after ± are expanded uncertainties.

Legend:
[1] = Liquid, Capillary tube (Ostwald / Ubbelohde) method
[2] = xn = mol fraction of the nth substance listed; conditions: Liquid, isochoric method, x1 = 0.1965

CCCCCCCCCCO [decan-1-ol]
[1]
Conditions | viscosity [mPa·s]
298.15 K, 2000 kPa | 11.25 ± 0.12
298.15 K, 3990 kPa | 11.54 ± 0.12
298.15 K, 6010 kPa | 11.79 ± 0.12
298.15 K, 8010 kPa | 12.05 ± 0.12
298.15 K, 10010 kPa | 12.35 ± 0.13
298.15 K, 13010 kPa | 12.74 ± 0.13
298.15 K, 16010 kPa | 13.16 ± 0.14
298.15 K, 19010 kPa | 13.57 ± 0.14
298.15 K, 22010 kPa | 14.01 ± 0.14
298.15 K, 25000 kPa | 14.46 ± 0.15
298.15 K, 28000 kPa | 14.89 ± 0.15
298.15 K, 29990 kPa | 15.19 ± 0.16
303.15 K, 1990 kPa | 8.895 ± 0.093
303.15 K, 4000 kPa | 9.117 ± 0.095
303.15 K, 5980 kPa | 9.337 ± 0.097
303.15 K, 8010 kPa | 9.562 ± 0.1
303.15 K, 10020 kPa | 9.784 ± 0.1
303.15 K, 12980 kPa | 10.11 ± 0.11
303.15 K, 15970 kPa | 10.44 ± 0.11
303.15 K, 19020 kPa | 10.78 ± 0.11
303.15 K, 22000 kPa | 11.11 ± 0.12
303.15 K, 24980 kPa | 11.44 ± 0.12
303.15 K, 27980 kPa | 11.77 ± 0.12
303.15 K, 30010 kPa | 12 ± 0.12
313.15 K, 2030 kPa | 6.219 ± 0.066
313.15 K, 4020 kPa | 6.374 ± 0.067
313.15 K, 6000 kPa | 6.526 ± 0.069
313.15 K, 7980 kPa | 6.68 ± 0.071
313.15 K, 9980 kPa | 6.835 ± 0.072
313.15 K, 12990 kPa | 7.068 ± 0.074
313.15 K, 15990 kPa | 7.299 ± 0.077
313.15 K, 18990 kPa | 7.532 ± 0.079
313.15 K, 22010 kPa | 7.766 ± 0.082
313.15 K, 25020 kPa | 7.999 ± 0.084
313.15 K, 28020 kPa | 8.231 ± 0.086
313.15 K, 29980 kPa | 8.382 ± 0.088
323.15 K, 2000 kPa | 4.735 ± 0.051
323.15 K, 4010 kPa | 4.857 ± 0.052
323.15 K, 6010 kPa | 4.97 ± 0.053
323.15 K, 8010 kPa | 5.091 ± 0.055
323.15 K, 9990 kPa | 5.202 ± 0.056
323.15 K, 13010 kPa | 5.369 ± 0.057
323.15 K, 16010 kPa | 5.54 ± 0.059
323.15 K, 19020 kPa | 5.726 ± 0.061
323.15 K, 22020 kPa | 5.892 ± 0.063
323.15 K, 25010 kPa | 6.072 ± 0.064
323.15 K, 28000 kPa | 6.247 ± 0.066
323.15 K, 30010 kPa | 6.373 ± 0.067

CCCCCCCC [octane] + O=C=O
mass density [kg/m3], [2]
Conditions | 313.05 K | 322.96 K | 332.84 K
8000 kPa | 740.9 ± 0.8 | – | –
9000 kPa | 750.1 ± 0.8 | 716.1 ± 0.8 | –
10000 kPa | 758.3 ± 0.8 | 724.1 ± 0.8 | –
11000 kPa | 765.4 ± 0.8 | 731.9 ± 0.8 | –
12000 kPa | 771.9 ± 0.8 | 739.1 ± 0.8 | –
13000 kPa | 777.9 ± 0.8 | 745.8 ± 0.8 | –
14000 kPa | 783.5 ± 0.8 | 752 ± 0.8 | –
15000 kPa | 788.7 ± 0.8 | 757.7 ± 0.8 | –
16000 kPa | 793.6 ± 0.8 | 763.1 ± 0.79 | 732.9 ± 0.8
17000 kPa | 798.2 ± 0.8 | 768.2 ± 0.8 | 739.2 ± 0.8
18000 kPa | 802.7 ± 0.8 | 772.9 ± 0.8 | 745.1 ± 0.8
19000 kPa | – | 777.5 ± 0.8 | 750.6 ± 0.8
19170 kPa | 807 ± 0.8 | – | –
20000 kPa | 811.1 ± 0.8 | 781.8 ± 0.8 | 755.8 ± 0.8
21000 kPa | 815 ± 0.8 | 786 ± 0.8 | –
21020 kPa | – | – | 760.8 ± 0.8
22000 kPa | 818.7 ± 0.8 | 789.9 ± 0.8 | –
22020 kPa | – | – | 765.4 ± 0.8
22960 kPa | – | 793.6 ± 0.8 | –
22980 kPa | – | – | 769.7 ± 0.8
22990 kPa | 822.2 ± 0.8 | – | –
23960 kPa | – | 797.3 ± 0.8 | –
23990 kPa | – | – | 773.9 ± 0.8
24000 kPa | 825.6 ± 0.9 | – | –
24550 kPa | 827.5 ± 0.9 | – | –
24790 kPa | – | – | 777.1 ± 0.8
